Assay results taken from patent US9657348B2, “Method of screening compounds for the treatment of diabetes” (ATROGI AB, priority 2013, dated 2017).
“Also recorded” adds a separate entry of the source. Starred links: 1 amine or outer side, 2 acyl side, 3 side chain; linkers in the order of their positions; H or OH if unused. Positions of bridges follow the written chain, without caps; N, C: chain ends. Non-standard residues stand in square brackets, D forms with d. Residues, ends and D or L forms follow the SMILES beside them. Chains are numbered I, II in the order given. Actinocin(9to1) = Cc1c2oc3c(C)ccc(C(=O)[*:1])c3nc-2c(C(=O)[*:2])c(N)c1=O; NMeV = CN[C@H](C(=O)O)C(C)C; Sar = CNCC(=O)O

Key:
cAMP = cAMP content over time in L6 myotubes; format: cell-based, rat; settings: for maximum difference in cAMP versus cells not brought into contact (Δ1): L6 myotubes
Protocol: Further, to determine whether contacting BRL37344 causes a response of a classical secondary messenger in cells with which it is brought into contact, the concentration of cAMP was measured during a period of time. As a reference, cAMP in cells not brought into contact was measured. In FIG. 9A the difference Δ1 for BRL37344 is plotted, and the maximum difference is about 8 pmol. […] The calculated value of r″ therefore is 8/45=0.18.

GLUT4 = GLUT4 translocation to plasma membrane by immunocytochemistry in L6 cells; format: cell-based, rat; settings: non-permeabilized L6 myoblasts; 1 μM, 2 h
soleus muscle = experiment: 3-O-methylglucose transport (glucose uptake) in isolated soleus muscle; format: cell-based; settings: soleus muscle from rat; FIG. 1A
Protocol: (§1) Soleus muscles were dissected from Sprague-Dawley rats and suspended in Krebs-Henseleit bicarbonate (KHB) buffer (118.5 mM NaCl, 4.7 mM KCl, 1.2 mM KH2PO4, 25 mM NaHCO3, 2.5 mM CaCl2, 1.2 mM MgSO4, 5 mM HEPES) in organ baths containing 30 ml KHB containing 5 mM glucose and 15 mM mannitol, bubbled with 95% O2/5% CO2 (pH 7.4) and maintained at 37° C. […] Muscles were rinsed with KHB (20 mM mannitol) for 10 min, then incubated in KHB (8 mM 3-O-methylglucose and 12 mM mannitol with 438 μCi/mmol 3-O-methyl[3H]glucose (80.2 Ci/mmol; PerkinElmer) and 42 μCi/mmol [^14C] mannitol (58.8 mCi/mmol; PerkinElmer, USA)) for 12 min. Muscles were then rinsed with PBS and frozen in liquid nitrogen, weighed and dissolved in 1 mL of 0.5M NaOH at 60° C. ^3H and ^14C were measured by liquid scintillation counting. Total muscle 3-O-methylglucose and extracellular space were measured as described previously (Zierath 1995). Intracellular 3-O-methylglucose accumulation was calculated by: (Total muscle 3-O-methylglucose)−(extracellular 3-O-methylglucose)=intracellular 3-O-methylglucose. This was then expressed as a rate of 3-O-methylglucose transport per mL of intracellular water per hour. Glucose uptake was measured in L6 skeletal muscle cells and in human skeletal muscle cells (SKMC) grown in 12-well plates using ^3H-2-deoxyglucose as previously described (Nevzorova et al. 2002) with minor modifications. […]

[1] = tested on: human skeletal muscle cells (SKMC); experiment: 3H-2-deoxyglucose uptake in human skeletal muscle cells; format: cell-based; settings: FIG. 1C
Protocol: as §1

L6 skeletal muscle cells [2] = experiment: 3H-2-deoxyglucose uptake in L6 myotubes, with or without inhibitors or GRK2 siRNA; format: cell-based, rat; settings: for glucose uptake / effect of GRK2 knock-down with siRNA on glucose uptake stimulated by the substance / basal glucose uptake in presence of inhibitor / insulin- and GPCR-stimulated glucose uptake in presence of inhibitor: L6 myotubes; for glucose uptake: stimulation with drug; for effect of GRK2 knock-down with siRNA on glucose uptake stimulated by the substance: FIG. 7, FIG. 9B; for basal glucose uptake in presence of inhibitor / insulin- and GPCR-stimulated glucose uptake in presence of inhibitor: inhibitor pretreatment 30 min; for insulin- and GPCR-stimulated glucose uptake in presence of inhibitor: then insulin or GPCR stimulation
Protocol: Cells were grown as in Example 1. Cells were pretreated with inhibitors for 30 min and then exposed to GPCR stimulation.
GRK2 siRNA constructs (Sigma Aldrich) as well as control sequence was transfected into L6 mytoubes by electroporation. Differentiated L6 cells were detached by washing in PBS followed by 5 minutes of incubation in trypsin/EDTA (0.1% trypsin w/v, 0.02% EDTA w/v). The detached cells were transferred to Eppendorf tubes and centrifugation at 1000×g for 3 minutes was performed before supernatant was removed and the cells were resuspended in 20 μl/well of SE Cell Line Nucleofector® (Lonza) and 100 nM siRNA. Cells were transferred to a 16-well microcuvette plate (Lonza) and were electroporated in a 4D-Nucleofector® (Lonza). 80 μl of pre-warmed RPMI1640 medium were added to the each microcuvette well for 5 min before the cells were transferred to the Eppendorf tubes containing culture media. Cells were serum starved over night and glucose uptake measured 24 hours after transfection.
Glucose uptake was detected by ^3H-2-dexoy-glucose as previously described (Nevzorova 2002), with minor modifications. Differentiated L6-myotubes were serum-starved over night in media containing 0.5% fatty-acid free BSA and stimulated with agonists for totally 2 h, unless otherwise stated. Cells were exposed to 50 nM ^3H-2-dexoy-glucose in glucose free media for 6-10 minutes before the experiment was ended by washing the cells in ice-cold PBS or glucose free media. Cells were lysed in 0.2 M NaOH for 1 h in 60° C., mixed with scintillation buffer (Emulsifier Safe, Perkin Elmer) and radioactivity detected in a β-counter (Tri-Carb 2800TR, Perkin Elmer).

[3] = tested on: Human prostate carcinoma (22rv1) cells; experiment: Glucose uptake in 22rv1 cells with or without GRK2 siRNA; format: cell-based; settings: FIG. 8
Protocol: Human prostate carcinoma (22rv1) cells were grown for 7 days in RPMI-1640 medium. […] At day 7, 22rv1 cells were treated with siRNA. siRNA constructs GRK2 (Sigma Aldrich) as well as control sequence were transfected into 22rv1 cells by lipofectamine (Life Technologies Corp.) according to the manufacturer's protocol. Cells were serum starved over night and glucose uptake was measured 24 hours after transfection. Cells were stimulated with drugs for totally 2 h, unless otherwise stated.

L6 skeletal muscle cells [4] = experiment: Cell viability of L6 cells under transcription/translation inhibitor

`CC(C)NCC(O)c1ccc(O)c(O)c1` (racemic) [isoproterenol, (RS)-4-[1-hydroxy-2-(isopropylamino)ethyl]benzene-1,2-diol] was tested, and the “maximum difference in cAMP versus cells not brought into contact (Δ1)” value (cAMP; FIG. 9A) was “about 45 pmol”, the “GLUT4 recruitment to the plasma membrane” value (GLUT4) was “GLUT4 recruitment to the plasma membrane to the same extent” and the glucose uptake (soleus muscle) was “leads to glucose uptake”. For the same molecule, the glucose uptake [1] was “leads to glucose uptake”.
In the case of `C[C@H](Cc1ccc(OCC(=O)O)cc1)NC[C@H](O)c1cccc(Cl)c1` (relative stereo) [BRL37344, (±)-(R*,R*)-[4-[2-[[2-(3-chlorophenyl)-2-hydroxy-ethyl]amino]propyl]phenoxy]acetic acid], the “ratio r″ (cAMP response of compound / cAMP response of isoproterenol)” value (cAMP; 8/45) is reported as 0.18, the “maximum difference in cAMP versus cells not brought into contact (Δ1)” value (cAMP; FIG. 9A) is reported as “about 8 pmol” and the “contents of cAMP over basal” value (cAMP; skeletal muscle cells (L6 myotubes), all time points, FIG. 9A) is reported as “did not significantly increase”. For the same molecule, the “glucose uptake in % of the glucose uptake of the same cells brought into contact with vehicle only” value (L6 skeletal muscle cells [2]; (untransfected) cells expressing GRK2, FIG. 9B) was 175%, the glucose uptake (L6 skeletal muscle cells [2]) was “stimulate glucose uptake” and the “effect of GRK2 knock-down with siRNA on glucose uptake stimulated by the substance” value (L6 skeletal muscle cells [2]) was “significantly inhibited”. For the same molecule, the “glucose uptake in % of vehicle” value (L6 skeletal muscle cells [2]; transfected (GRK2 siRNA) cells not expressing GRK, FIG. 9B) was 125%.
With `CS(=O)(=O)Nc1c(O)ccc2c1CCCC2C1=NCCN1` (centres unmarked) [A61603] the “effect of GRK2 down-regulation with siRNA on glucose uptake stimulated by the substance” value (shortened to “effect of GRK2 down-regulation”) [3] was “inhibited”.
In the case of `O=C(CCc1ccc(O)cc1)c1c(O)cc(O)cc1O` [Phloretin, phloretin], the “basal glucose uptake in presence of inhibitor” value (L6 skeletal muscle cells [2]) is reported as “blocked basal glucose uptake” and the “insulin- and GPCR-stimulated glucose uptake in presence of inhibitor” value (L6 skeletal muscle cells [2]) is reported as “significantly reduced”.
For `Cc1c2oc3c(C)ccc(C(=O)N[C@@H]4C(=O)N[C@H](C(C)C)C(=O)N5CCC[C@H]5C(=O)N(C)CC(=O)N(C)[C@@H](C(C)C)C(=O)O[C@@H]4C)c3nc-2c(C(=O)N[C@@H]2C(=O)N[C@H](C(C)C)C(=O)N3CCC[C@H]3C(=O)N(C)CC(=O)N(C)[C@@H](C(C)C)C(=O)O[C@@H]2C)c(N)c1=O` [actinomycin, Actinomycin D] (I: T[dV]P[Sar][NMeV] / II: T[dV]P[Sar][NMeV]; ester I:1-I:C, II:1-II:C; linker I:N-II:N via Actinocin(9to1)), the cell viability (L6 skeletal muscle cells [4]) was “did not significantly affect”, the “basal glucose uptake in presence of inhibitor” value (L6 skeletal muscle cells [2]) was “did not significantly affect” and the “insulin- and GPCR-stimulated glucose uptake in presence of inhibitor” value (L6 skeletal muscle cells [2]) was “did not significantly affect”.
With `C[C@@H]1C[C@@H]([C@H](O)CC2CC(=O)NC(=O)C2)C(=O)[C@@H](C)C1` [cyclohexamide] the “basal glucose uptake in presence of inhibitor” value (L6 skeletal muscle cells [2]) was “did not affect” and the “insulin- and GPCR-stimulated glucose uptake in presence of inhibitor” value (L6 skeletal muscle cells [2]) was “did not affect”.
With `C=C1[C@@H](C)[C@H]2[C@H](Cc3ccccc3)NC(=O)[C@]23OC(=O)/C=C/[C@H](O)CCC[C@@H](C)C/C=C/[C@H]3[C@@H]1O` [cytochalasin B] the “basal glucose uptake in presence of inhibitor” value (L6 skeletal muscle cells [2]) was “reduced basal glucose uptake” and the “insulin- and GPCR-stimulated glucose uptake in presence of inhibitor” value (L6 skeletal muscle cells [2]) was “reduced”.
For `CC(C)(C)NC(=O)[C@@H]1CN(Cc2cccnc2)CCN1C[C@@H](O)C[C@@H](Cc1ccccc1)C(=O)N[C@H]1c2ccccc2C[C@H]1O` [indinavir], the “basal glucose uptake in presence of inhibitor” value (L6 skeletal muscle cells [2]) was “blocked basal glucose uptake” and the “insulin- and GPCR-stimulated glucose uptake in presence of inhibitor” value (L6 skeletal muscle cells [2]) was “significantly reduced”.
In the case of `NC[C@H](O)c1ccc(O)c(O)c1` [norepinephrine (NA), norepinephrine], the “effect of GRK2 down-regulation” value [3] is reported as “inhibited”.
`Cc1cc(C(C)(C)C)c(O)c(C)c1CC1=NCCN1` [oxymetazoline] was tested, and the “effect of GRK2 down-regulation” value [3] was “inhibited”.
With insulin the “GLUT4 recruitment to the plasma membrane” value (GLUT4) was “GLUT4 recruitment to the plasma membrane to the same extent”, the “effect of GRK2 down-regulation” value [3] was “does not inhibit” and the glucose uptake (L6 skeletal muscle cells [2]) was “increased glucose uptake”. The “effect of GRK2 knock-down with siRNA on glucose uptake stimulated by the substance” value (L6 skeletal muscle cells [2]) was “could not be blocked; also recorded: does not inhibit”.
